These results are taken from ChEMBL document CHEMBL1130081, “Inhibition of human telomerase by a G-quadruplex-interactive compound” (J Med Chem, 1997).

The test concerns the target Telomerase reverse transcriptase (Homo sapiens, UniProt O14746). Kind of test: Inhibitory concentration against human telomerase.

Sequence of Telomerase reverse transcriptase (O14746 whole entry): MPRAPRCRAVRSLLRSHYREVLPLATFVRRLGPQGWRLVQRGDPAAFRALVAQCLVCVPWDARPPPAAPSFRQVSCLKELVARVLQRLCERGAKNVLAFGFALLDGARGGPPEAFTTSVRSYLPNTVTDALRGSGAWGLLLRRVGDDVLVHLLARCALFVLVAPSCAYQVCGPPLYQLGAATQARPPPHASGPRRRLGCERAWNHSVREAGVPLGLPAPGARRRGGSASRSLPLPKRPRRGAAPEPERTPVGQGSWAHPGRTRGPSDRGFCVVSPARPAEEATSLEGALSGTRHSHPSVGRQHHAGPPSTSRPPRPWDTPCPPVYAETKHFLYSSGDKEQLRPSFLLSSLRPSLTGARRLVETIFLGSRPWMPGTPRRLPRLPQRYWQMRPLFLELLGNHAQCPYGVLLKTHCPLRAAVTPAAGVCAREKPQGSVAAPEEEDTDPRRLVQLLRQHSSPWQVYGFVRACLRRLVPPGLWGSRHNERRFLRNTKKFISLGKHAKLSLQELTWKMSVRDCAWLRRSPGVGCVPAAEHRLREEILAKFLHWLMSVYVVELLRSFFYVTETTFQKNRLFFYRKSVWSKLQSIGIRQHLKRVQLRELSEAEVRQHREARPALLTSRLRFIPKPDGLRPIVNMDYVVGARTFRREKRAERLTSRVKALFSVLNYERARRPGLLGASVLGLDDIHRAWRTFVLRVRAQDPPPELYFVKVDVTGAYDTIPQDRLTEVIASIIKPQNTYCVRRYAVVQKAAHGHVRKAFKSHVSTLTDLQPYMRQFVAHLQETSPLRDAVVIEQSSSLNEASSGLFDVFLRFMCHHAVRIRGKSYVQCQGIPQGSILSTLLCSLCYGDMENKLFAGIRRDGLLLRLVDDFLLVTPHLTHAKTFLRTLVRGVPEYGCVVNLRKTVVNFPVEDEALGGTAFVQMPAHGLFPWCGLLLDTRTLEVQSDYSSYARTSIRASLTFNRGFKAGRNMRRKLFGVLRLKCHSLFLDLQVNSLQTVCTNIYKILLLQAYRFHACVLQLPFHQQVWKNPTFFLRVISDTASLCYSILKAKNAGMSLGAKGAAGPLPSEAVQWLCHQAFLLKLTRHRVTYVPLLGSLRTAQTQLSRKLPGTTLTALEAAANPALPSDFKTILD

With `C[N+]1(CCC(=O)Nc2ccc3c(c2)C(=O)c2ccc(NC(=O)CC[N+]4(C)CCCCC4CO)cc2C3=O)CCCCC1CO` (stereo unspecified), the IC50 turned out to be 23 µM.
